# Measurements published in patent US20250059180A1 (DONG WHA PHARM. CO., LTD., priority 2022, published 2025).
# Like-named read-outs stand apart in the source and are kept apart here.
# System: Pfeiffer cells, lymphoma cells having EZH2 mutation (A677G)
# Assay: Proliferation inhibition of cells of hematologic malignancies (CCK-8, 11 days)
# Assay type: cell-based
# Settings: 11 days culture, read-out: Cell proliferation inhibitory effect (IC50)
# Protocol: The growth inhibitory activity of 1,3-benzodioxole derivative compounds represented by chemical formula I of the present invention against Pfeiffer cells, which are lymphoma cells having EZH2 mutation (A677G), was evaluated.
# Pfeiffer was cultured using RPMI1640 containing 10% fetal bovine serum. The cells were inoculated into wells of a 96-well culture dish at 10,000 cells each, and cultured for 11 days after treating with the test material for each concentration. For 11 days, the test material was replaced every three to four days. After culturing, the cells were treated with a cell counting kit-8 (CCK-8) reagent for each well, absorbance was measured at 450 nm, and IC50 values for cell proliferation were obtained through curve fitting of non-linear regression in the GraphPad program (GraphPad Prism 5.0 software).
IC50,"IC50 (Homo sapiens, Pfeiffer, 264 h)",SMILES
≥ 100 nM,,"CSc1cc(C)[nH]c(=O)c1CNC(=O)c1cc(-c2ccc(N3C[C@@H](C)O[C@@H](C)C3)nc2)c2c(c1C)OC(C)(C1CCN(CC(F)F)CC1)O2 (single isomer, unassigned) [Compound 48]"
,≤ 10 nM,"CCN(C)[C@H]1CC[C@H](C2(C)Oc3c(-c4ccc(N5C[C@@H](C)O[C@@H](C)C5)nc4)cc(C(=O)NCc4c(SC)cc(C)[nH]c4=O)c(C)c3O2)CC1 (stereo partly drawn) [Compound 111, 7-(6-((2S,6R)-2,6-dimethylmorpholino)pyridin-3-yl)-2-(trans-4-(ethyl(methyl)amino)cyclohexyl)-2,4-dimethyl-N-((6-methyl-4-(methylthio)-2-oxo-1,2-dihydropyridin-3-yl)methyl)benzo[d][1,3]dioxole-5-carboxamide]"
≤ 10 nM,,"CSc1cc(C)[nH]c(=O)c1CNC(=O)c1cc(-c2ccc(N3C[C@@H](C)O[C@@H](C)C3)nc2)c2c(c1C)OC(C)(C1CCN(C(=O)C(F)(F)F)CC1)O2 (single isomer, unassigned) [Compound 59]"
,≤ 10 nM,"CSc1cc(C)[nH]c(=O)c1CNC(=O)c1cc(-c2ccc(N3CCOCC3)cc2)c2c(c1C)OC(C)([C@H]1CC[C@H](N(C)C)CC1)O2 (stereo partly drawn) [Compound 9, 2-(trans-4-(dimethylamino)cyclohexyl)-2,4-dimethyl-N-((6-methyl-4-(methylthio)-2-oxo-1,2-dihydropyridin-3-yl)methyl)-7-(4-morpholinophenyl)benzo[d][1,3]dioxole-5-carboxamide]"
,≤ 10 nM,"CSc1cc(C)[nH]c(=O)c1CNC(=O)c1cc(-c2cnc(N3CCCCC3)nc2)c2c(c1C)OC(C)(C1CCN(CC(F)(F)F)CC1)O2 (centres unmarked) [Compound 39, 2,4-dimethyl-N-((6-methyl-4-(methylthio)-2-oxo-1,2-dihydropyridin-3-yl)methyl)-7-(2-(piperidin-1-yl)pyrimidin-5-yl)-2-(1-(2,2,2-trifluoroethyl)piperidin-4-yl)benzo[d][1,3]dioxole-5-carboxamide]"
,≥ 100 nM,"CSc1cc(C)[nH]c(=O)c1CNC(=O)c1cc(-c2ccc3occc3c2)c2c(c1C)OC(C)(C1CCN(CC(F)F)CC1)O2 (centres unmarked) [Compound 97, 7-(benzofuran-5-yl)-2-(1-(2,2-difluoroethyl)piperidin-4-yl)-2,4-dimethyl-N-((6-methyl-4-(methylthio)-2-oxo-1,2-dihydropyridin-3-yl)methyl)benzo[d][1,3]dioxole-5-carboxamide]"
,≤ 10 nM,"CCN(C)c1ccc(-c2cc(C(=O)NCc3c(SC)cc(C)[nH]c3=O)c(C)c3c2OC(C)(C2CCN(CC(F)(F)F)CC2)O3)cn1 (single isomer, unassigned) [Compound 86, 7-(6-(ethyl(methyl)amino)pyridin-3-yl)-2,4-dimethyl-N-((6-methyl-4-(methylthio)-2-oxo-1,2-dihydropyridin-3-yl)methyl)-2-(1-(2,2,2-trifluoroethyl)piperidin-4-yl)benzo[d][1,3]dioxole-5-carboxamide]"
,≤ 10 nM,"CSc1cc(C)[nH]c(=O)c1CNC(=O)c1cc(-c2ccc(N3C[C@@H](C)O[C@@H](C)C3)nc2)c2c(c1C)OC(C)(C1CCN(CC(F)F)CC1)O2 (stereo partly drawn) [Compound 46, 2-(1-(2,2-difluoroethyl)piperidin-4-yl)-7-(6-((2S,6R)-2,6-dimethylmorpholino)pyridin-3-yl)-2,4-dimethyl-N-((6-methyl-4-(methylthio)-2-oxo-1,2-dihydropyridin-3-yl)methyl)benzo[d][1,3]dioxole-5-carboxamide]"
,≤ 10 nM,"CSc1cc(C)[nH]c(=O)c1CNC(=O)c1cc(-c2ccsc2)c2c(c1C)OC(C)(C1CCC(N(C)C)CC1)O2 (centres unmarked) [Compound 42, 2-(4-(dimethylamino)cyclohexyl)-2,4-dimethyl-N-((6-methyl-4-(methylthio)-2-oxo-1,2-dihydropyridin-3-yl)methyl)-7-(thiophen-3-yl)benzo[d][1,3]dioxole-5-carboxamide]"
,≤ 10 nM,"COC(CN1CCC(C2(C)Oc3c(-c4ccc(N5C[C@@H](C)O[C@@H](C)C5)nc4)cc(C(=O)NCc4c(SC)cc(C)[nH]c4=O)c(C)c3O2)CC1)OC (stereo partly drawn) [Compound 41, 2-(1-(2,2-dimethoxyethyl)piperidin-4-yl)-7-(6-((2S,6R)-2,6-dimethylmorpholino)pyridin-3-yl)-2,4-dimethyl-N-((6-methyl-4-(methylthio)-2-oxo-1,2-dihydropyridin-3-yl)methyl)benzo[d][1,3]dioxole-5-carboxamide]"
≥ 100 nM,,"CSc1cc(C)[nH]c(=O)c1CNC(=O)c1cc(-c2ccc(N3CCOCC3)nc2)c2c(c1C)OC(C)(C1CCN(CC(F)F)CC1)O2 (single isomer, unassigned) [Compound 65, 2-(1-(2,2-difluoroethyl)piperidin-4-yl)-2,4-dimethyl-N-((6-methyl-4-(methylthio)-2-oxo-1,2-dihydropyridin-3-yl)methyl)-7-(6-morpholinopyridin-3-yl)benzo[d][1,3]dioxole-5-carboxamide]"
≥ 100 nM,,"CSc1cc(C)[nH]c(=O)c1CNC(=O)c1cc(-c2ccc(N3C[C@@H](C)O[C@@H](C)C3)nc2)c2c(c1C)OC(C)(C1CCN(CCCC(F)(F)F)CC1)O2 (single isomer, unassigned) [Compound 58]"
,≤ 10 nM,"CSc1cc(C)[nH]c(=O)c1CNC(=O)c1cc(-c2ccoc2)c2c(c1C)OC(C)([C@H]1CC[C@H](N(C)C)CC1)O2 (stereo partly drawn) [Compound 18, 2-(trans-4-(dimethylamino)cyclohexyl)-7-(furan-3-yl)-2,4-dimethyl-N-((6-methyl-4-(methylthio)-2-oxo-1,2-dihydropyridin-3-yl)methyl)benzo[d][1,3]dioxole-5-carboxamide]"
≤ 10 nM,,"CSc1cc(C)[nH]c(=O)c1CNC(=O)c1cc(-c2cnc(N3C[C@@H](C)O[C@@H](C)C3)nc2)c2c(c1C)OC(C)([C@H]1CC[C@H](N(C)CC(F)(F)F)CC1)O2 (stereo partly drawn) [Compound 23, 7-(2-((2S,6R)-2,6-dimethylmorpholino)pyrimidin-5-yl)-2,4-dimethyl-2-(trans-4-(methyl(2,2,2-trifluoroethyl)amino)cyclohexyl)-N-((6-methyl-4-(methylthio)-2-oxo-1,2-dihydropyridin-3-yl)methyl)benzo[d][1,3]dioxole-5-carboxamide]"
≤ 10 nM,,"CCN1CCC(C2(C)Oc3c(-c4ccc(N5CCOCC5)nc4)cc(C(=O)NCc4c(SC)cc(C)[nH]c4=O)c(C)c3O2)CC1 (single isomer, unassigned) [Compound 66, 2-(1-ethylpiperidin-4-yl)-2,4-dimethyl-N-((6-methyl-4-(methylthio)-2-oxo-1,2-dihydropyridin-3-yl)methyl)-7-(6-morpholinopyridin-3-yl)benzo[d][1,3]dioxole-5-carboxamide]"
≤ 10 nM,,"CCN1CCN(c2ncc(-c3cc(C(=O)NCc4c(SC)cc(C)[nH]c4=O)c(C)c4c3OC(C)(C3CCN(CC(F)(F)F)CC3)O4)cn2)CC1 (single isomer, unassigned) [Compound 76, 7-(2-(4-ethylpiperazin-1-yl)pyrimidin-5-yl)-2,4-dimethyl-N-((6-methyl-4-(methylthio)-2-oxo-1,2-dihydropyridin-3-yl)methyl)-2-(1-(2,2,2-trifluoroethyl)piperidin-4-yl)benzo[d][1,3]dioxole-5-carboxamide]"
≤ 10 nM,,"CSc1cc(C)[nH]c(=O)c1CNC(=O)c1cc(-c2ccc(N3C[C@@H](C)O[C@@H](C)C3)nc2)c2c(c1C)OC(C)(C1CCN(C(C)C)CC1)O2 (single isomer, unassigned) [Compound 51]"
